Reference: patent US20110064773A1, “PHARMACEUTICAL COMPOSITIONS COMPRISING A THYROID HORMON AND THEIR THERAPEUTIC USE” (UNIVERSITE JOSEPH FOURIER, priority 2007, published 2011)
Entries after “also recorded” stand apart in the source; their conditions may differ.

Columns and labels:
Format in all cases: in vivo, rat
Wistar rats [1] = experiment: Indirect calorimetry (energy expenditure, respiratory quotient) of Wistar rats; conditions: for Energy expenditure and respiratory quotient (metabolic activity): 2.5 μg/100 g continuous, 21 days; for Energy expenditure (EE, metabolism): 25 μg/100 g BW
Text: Energy expenditure as well as the nature of substrate oxidized (carbohydrates or lipids) were investigated by indirect calorimetry. This principle is based on the determinations of CO2 release (VCO2) and O2 consumption (VO2) by each animal. It assumes that O2 is entirely involved in substrate oxidation in the respiratory chain (leading to water production) while CO2 release is related to substrate decarboxylation (in the Krebs' cycle). These measurements allow assessing energy expenditure (EE) and respiratory quotient ([…], RQ). EE represent the absolute energy dissipation during rest and activity. RQ is a relative measurement indicating the ratio of carbohydrate versus lipid involved in oxidative pathway. A ratio of 1.0 indicates exclusive carbohydrate oxidation while a ratio of 0.7 indicates exclusive lipid oxidation. Each value between these two extreme values indicates the relative proportion of each substrate (of note protein oxidation was not evaluated). As an example, RQ approaches 0.7 during fasting, indicating lipid oxidation, conversely after feeding RQ increases close to 1 indicating carbohydrate oxidation resulting from food intake and blood insulin rise. Likewise, animals fed high-carbohydrate diets have higher RQs than those fed high-fat diets.
The indirect calorimetry system (Panlab, Barcelona, Spain) consists of cages, pumps, flow controllers, valves, and analyzers. It is computer-controlled in order to sequentially measure O2 and CO2 concentrations as well as air flow in four separate cages allowing four simultaneous determinations. Rats are isolated in one of the four metabolic chambers, and room air is used as a reference to monitor ambient O2 and CO2 concentrations periodically.
At predefined intervals, the computer sends a signal to store differential CO2 and O2 concentrations, flow rate, allowing computing VCO2, VO2, RQ, and EE (Weir equation) with data acquisition hardware (Metabolism, Panlab, Barcelona, Spain).

liver mitochondria = experiment: Rate of liver mitochondrial oxygen consumption (JO2) of treated Wistar rats; conditions: vs placebo
Description: The major part of the liver and the red part of each quadriceps were rinsed, and chopped into isolation medium (250 mM sucrose, 20 mM Tris-HCl and 1 mM EGTA-Tris, pH 7.4). Nuclei and cell debris were removed by centrifugation at 800 g for 10 min. Mitochondria were then isolated from the supernatant by spinning twice at 8,000 g for 10 minutes. The mitochondrial pellet was resuspended in 0.5 ml of isolation buffer and kept on ice. Mitochondrial protein was measured by the bicinchoninic acid method (Pierce, Rockford, Ill.). The final mitochondrial suspensions were maintained on ice and were used for measurements of oxygen consumption rate.
The rate of mitochondrial oxygen consumption (JO2) was measured at 30° C. in an incubation chamber with a Clark-type O2 electrode filled with 2 ml of incubation medium (125 mM KCl, 10 mM Pi-Tris, 20 mM Tris-HCl, 0.1 mM EGTA, pH 7.2). All measurements were performed using mitochondria (1.0 or 0.2 mg mitochondrial protein/ml for liver and skeletal muscle) incubated either with various substrates: glutamate/malate (5 mM/2.5 mM) and succinate (5 mM), alone or in combination, palmitoyl carnitine (55 μM) and octanoyl carnitine (100 μM). For each substrate, JO2 was recorded in the presence of the substrate alone (State 2) and following the addition of 1 mM ADP (state 3). Oligomycin (1.25 μg/mg protein) was added to the mitochondrial suspension to determine the non-phosphorylating respiratory rate (state 4). The incubation medium was constantly stirred with a built-in electromagnetic stirrer and bar flea. The efficiency of the mitochondrial oxidative phosphorylation was assessed by the state 3/state 4 ratio which measures the degree of control imposed on oxidation by phosphorylation (respiratory control ratio, RCR).

[2] = Blood rT3 dosage over 24 hours after administration; conditions: Wistar rats
Description: Blood rT3 dosage. The rT3 concentration is measured for 24 hours in Wistar rats treated with a high dosage of rT3 by intra-peritoneal injection (IP, square), oral ingestion (per os, triangle) or subcutaneous injection (sc, star). Basal rT3 level is measured in animal treated with placebo (lozenge).
Wistar rats were treated with rT3 hormone by a daily intraperitoneal injection (IP) (25 μg/100 g BW), a daily sub-cutaneous injection (SC) (25 μg/100 g BW), or a per os administration included in the rat food (25 μg/100 g BW). The continuous and constant administration was performed by using a pellet (25 μg/100 g BW).

n0STZ rats = experiment: Oral glucose tolerance test (OGTT) and pancreas mass in n0STZ rats; conditions: 2.5 μg/100 g BW
Description: N0STZ rats are diabetic non obese with moderate insulin-resistance, and have received an injection of streptozotocine just after the birth, said product killing pancreatic cells.
The glucose resistance of these animals was tested by an oral glucose tolerance test (OGTT) Animals were fed with 2 g/kg BW of glucose and the Glucose concentration and Insulin concentration in blood were measured.
The glucose concentration (FIG. 35) and insulin concentration (FIG. 36) were then measured for this time.

Wistar rats [3] = experiment: Oral glucose tolerance test (OGTT) and pancreas mass in non-diabetic Wistar rats; conditions: 2.5 μg/100 g BW, vs placebo
Description: Wistar rats are non-diabetic, non-obese without insulin-resistance, however like in humans, they tend to get slightly obese and insulin resistant with age. However this is supposed to be “physiological”.
The glucose resistance of these animals was tested by an oral glucose tolerance test (OGTT). Animals were fed with 2 g/kg BW of glucose and the Glucose concentration and Insulin concentration in blood were measured.

Wistar rats [4] = experiment: OGTT in Wistar rats fed a high fat high sucrose diet; conditions: 8 weeks high fat high sucrose diet, rT3 2.5 μg/100 g, vs placebo
Description: A clinically relevant situation of a nutritionally-induced insulin resistance is known as a high fat high sucrose diet (HF). Therefore, the effects of rT3 on glucose and insulin response to an OGTT test were investigated. Wistar rats were fed a diet containing 45.5% fat (38% lard and 7.5% soy oil) and 34% carbohydrate (25% as sucrose) for 8 weeks. OGTT was performed as described above.

[5] = 25 μg/100 g BW pellet, vs placebo
[6] = high dose 250 μg/kg BW/day, various substrates
[7] = 2 g/kg glucose, 3 hours, vs placebo

N[C@@H](Cc1ccc(Oc2cc(I)c(O)c(I)c2)c(I)c1)C(=O)O [rT3, 3′,5′,3-triiodothyronine]
Energy expenditure and respiratory quotient (metabolic activity) (Wistar rats [1]; intra-peritoneal pump): increase of the metabolic activity | Energy expenditure and respiratory quotient (metabolic activity) (Wistar rats [1]; sub-cutaneous pump): increase of the metabolic activity | Respiratory quotient (RQ) during the day (diurnal period) (Wistar rats [1]; [5]): almost identical to placebo | Respiratory quotient (RQ) during the night (Wistar rats [1]; [5]): higher | Energy expenditure (EE, metabolism) (Wistar rats [1]; daily intra-peritoneal injection): do no modify the metabolism | Energy expenditure (EE, metabolism) (Wistar rats [1]; daily per os): do no modify the metabolism | Energy expenditure (EE, metabolism) (Wistar rats [1]; daily sub-cutaneous injection): do no modify the metabolism | Energy expenditure (EE, metabolic expenses) (Wistar rats [1]; 25 μg/100 g BW/day, continuous subcutaneous pellet, 24 h calorimetry): enhanced metabolic expanses | Respiratory quotient (RQ) (Wistar rats [1]; 25 μg/100 g BW/day, continuous subcutaneous pellet, after 900 min): significant difference from the placebo treated animals | Energy expenditure (EE) (Wistar rats [1]; high dose 25 μg/100 g BW): significantly enhance | Respiratory quotient (RQ) (Wistar rats [1]; high dose 25 μg/100 g BW, vs placebo): increase | Respiratory quotient (RQ) (Wistar rats [1]; low dose 2.5 μg/100 g BW, vs placebo): increase | Respiratory quotient (RQ) (Wistar rats [1]; ultra low dose 0.25 μg/100 g BW, vs placebo): decrease | Liver mitochondrial respiratory rate, non-phosphorylating (state 4, oligomycin) (liver mitochondria; [6]): much higher as compared to placebo; also recorded: dose-dependent increase | Liver mitochondrial respiratory rate, phosphorylating (state 3, ADP) (liver mitochondria; [6]): very significant increased respiratory rate; also recorded: dose-dependent increase | Liver mitochondrial respiratory rate, non-phosphorylating (state 4) (liver mitochondria; low dose 25 μg/kg BW/day): decreased efficiency; also recorded: dose-dependent increase | Liver mitochondrial respiratory rate, phosphorylating (state 3) (liver mitochondria; low dose 25 μg/kg BW/day): higher maximal respiratory capacity; also recorded: dose-dependent increase | Circulating rT3 (degradation) ([2]; high dosage, intra-peritoneal injection): rapidly degraded | Circulating rT3 compared to the injected dose ([2]; intra-peritoneal injection, after 5 hours): five fold decreased | Circulating rT3 concentration in blood ([2]; per os administration): never allows to obtain in blood a concentration of rT3 similar with the concentration observed after intra-peritoneal injection | Circulating rT3 concentration in blood ([2]; sub-cutaneous injection): remains substantially the same as the injected concentration | Circulating rT3 (degradation) ([2]; sub-cutaneous injection, after 24 hours): quasi completely degraded | AUC of the glucose concentration after OGTT (n0STZ rats; [7]): significantly reduced | AUC of the insulin concentration after OGTT (n0STZ rats; [7]): largely enhanced | Kinetic of blood glucose concentration after OGTT (n0STZ rats; 5 first minutes following the OGTT): regulate more rapidly | Kinetic of insulin concentration after OGTT (n0STZ rats; 20 min kinetic): high increase | Pancreas mass (n0STZ rats; vs placebo): increase | AUC of the glucose concentration after OGTT (Wistar rats [3]; 2 g/kg glucose, 3 hours): slightly reduced, however not significantly | AUC of the insulin concentration after OGTT (Wistar rats [3]; 2 g/kg glucose, 3 hours): significantly lower | Pancreas mass (Wistar rats [3]): moderate, albeit significant, increase | Blood glucose, area under the curve (AUC) after OGTT (Wistar rats [4]): significant lowering | Blood glucose, change over time of plasma concentration after OGTT (Wistar rats [4]): significant lowering | Insulin levels, AUC after OGTT (Wistar rats [4]): significantly lower | Insulin levels, changes over time after OGTT (Wistar rats [4]): significantly lower
